From US20110288082A1, “METHODS AND COMPOSITIONS FOR INHIBITION OF THE TRANSITIONAL ENDOPLASMIC RETICULUM ATPASE” (priority 2010, published 2011)
Several values for one entry are separate records, joined by “and”; a condition that tells them apart may be missing. Equal values may be shown once. Read-outs that look alike come from different tables or passages of the source.

Key:
[1] = system: p97-dependent Ub^G76V-GFP degradation in HeLa cells; test: Ub^G76V-GFP degradation (turn-over) assay; type: cell-based, human
Experimental: Ub^G76V-GFP Degradation Assay
Two GFP images with 100 ms exposure time per well were acquired and the average GFP intensity per area of a HeLa cell was determined by using MetaXpress software. Mean GFP intensity of 300-500 cells was calculated using Excel. Normalized GFP intensity was calculated using the following formula: (Test compound−Background)/(Basal GFP intensity—Background). Where: Test compound is defined as Mean GFP intensity of Ub^G76V-GFP-expressing cells treated with the test compound. Background is defined as background GFP intensity of HeLa cells. Basal GFP intensity is defined as mean GFP intensity of Ub^G76V-GFP-expressing cells treated with DMSO. […] The percent of remaining k for each compound is calculated using the following formula: (Test compound/DMSO control)*100. Where: Test_compound is defined as k determined from wells containing test compound, DMSO control is defined as k determined from wells containing DMSO.

[2] = target: p97 (Homo sapiens, UniProt P55072); test: p97 ATPase assay (Kinase Glo Plus; biomol green for compounds that interfere with luciferase); type: biochemical
Chain of p97 (P55072 2-806 limits assumed): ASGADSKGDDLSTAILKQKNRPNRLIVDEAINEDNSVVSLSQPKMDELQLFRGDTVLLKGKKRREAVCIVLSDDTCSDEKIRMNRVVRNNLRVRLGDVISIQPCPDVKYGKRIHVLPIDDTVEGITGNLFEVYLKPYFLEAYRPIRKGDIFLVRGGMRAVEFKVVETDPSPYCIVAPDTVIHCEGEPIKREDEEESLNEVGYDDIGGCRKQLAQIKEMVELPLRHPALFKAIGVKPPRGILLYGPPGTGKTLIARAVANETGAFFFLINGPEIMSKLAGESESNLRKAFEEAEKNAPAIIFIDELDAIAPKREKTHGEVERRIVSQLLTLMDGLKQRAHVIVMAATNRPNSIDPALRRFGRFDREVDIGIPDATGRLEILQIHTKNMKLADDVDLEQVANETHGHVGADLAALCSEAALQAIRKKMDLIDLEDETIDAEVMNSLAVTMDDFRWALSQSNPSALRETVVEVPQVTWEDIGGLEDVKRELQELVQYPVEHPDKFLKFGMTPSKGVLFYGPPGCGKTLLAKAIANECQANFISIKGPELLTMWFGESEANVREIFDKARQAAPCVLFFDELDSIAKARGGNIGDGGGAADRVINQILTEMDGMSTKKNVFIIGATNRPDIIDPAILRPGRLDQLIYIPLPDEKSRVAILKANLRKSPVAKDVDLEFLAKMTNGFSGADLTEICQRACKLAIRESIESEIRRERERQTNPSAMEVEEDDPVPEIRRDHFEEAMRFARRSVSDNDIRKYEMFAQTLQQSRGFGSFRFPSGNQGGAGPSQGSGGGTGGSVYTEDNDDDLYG
Experimental: Assay Buffer (20 μL of 2.5× concentration, where 1×=50 mM Tris pH 7.4, 20 mM MgCl2, 1 mM EDTA, 0.5 mM TCEP) was dispensed into each well of a 96 well plate. Purified p97 (25 μL of 50 μM) was diluted in 975 μL, of 1× Assay Buffer and 10 μL was dispensed in each well. Test compound (10 μL) or 5% DMSO (10 μL) was then added to each well and the plate was incubated at room temperature for 10 min. The ATPase assay was carried out by adding to each well 10 μL of 500 μM ATP (pH 7.5), incubating at room temperature for 60 min, and then adding 50 μL Kinase Glo Plus reagent (Promega) followed by a final 10 min incubation at room temperature in the dark. Luminescence was read on an Analyst AD (Molecular Devices). Compounds were assayed at a range of concentrations (0, 0.048, 0.24, 1.2, 6, 30 μM) in triplicate. The percent of remaining activity for each reaction was calculated using the following mathematical expression: ((Test Compound-High Control)/(Low Control-High Control))*100. Test_Compound is defined as wells containing test compound, Low_Control is defined as wells containing DMSO, High_Control is defined as wells containing no p97 protein. […] The result was expressed as mean +/− standard error. For assays with Myriad 12 and 19, 100 μL of biomol green reagent (Enzo Life Sciences) was added to each well instead of kinase Glo Plus (Promega) and absorbance at 630 nm was measured. This was done because these compounds interfered with luciferase activity. […]

[3] = Homo sapiens, HeLa, read-out: IC50 (μM) Ub^G76V-GFP turn over, Ub^G76V-GFP-expressing HeLa cells, degradation rate constant k from 90 to 180 min, mean +/- standard error
[4] = purified p97, ATP, 60 min room temperature, mean +/- standard error
[5] = Homo sapiens, HeLa, read-out: IC50 (μM) Ub^G76V-GFP turn over, p97-dependent Ub^G76V-GFP degradation turn-over assay

Cc1ccc(Nc2nc(NCc3ccccc3)c3ccccc3n2)cc1 [II-2]
IC50 [1, 3]: 6.3 ± 1.4 µM
IC50 [2, 4]: 2.2 ± 0.4 µM

Fc1ccccc1CNc1nc(Nc2cccc(Cl)c2)nc2ccccc12 [III-8]
IC50 [1, 3]: 7.8 ± 2.1 µM
IC50 [2, 4]: 1.8 ± 0.5 µM

Clc1ccc(CNc2nc(NCc3ccccc3)c3ccccc3n2)cc1Cl [IV-17]
IC50 [1, 3]: 1.9 ± 0.2 µM
IC50 [2, 4]: 3 ± 0.5 µM

Cc1cccc(CNc2nc(Nc3cccc(Cl)c3)nc3ccccc23)c1 [III-11]
IC50 [1, 3]: 9.7 ± 2.7 µM
IC50 [2, 4]: 2.3 ± 0.6 µM

COc1ccc(CNc2nc(NCc3ccccc3)c3ccccc3n2)cc1 [IV-5]
IC50 [1, 3]: 1.3 ± 0.2 µM
IC50 [2, 4]: 3 ± 0.5 µM

COCCOc1cccc2c(NCc3ccccc3)nc(N3CCOc4ccccc43)nc12 [VII-14]
IC50 [1, 3]: 6.5 ± 0.7 µM
IC50 [2, 4]: 0.6 ± 0.03 µM

COc1ccc(Nc2nc(Nc3ccc(OC)cc3)c3ccccc3n2)cc1 [XXV-1]
IC50 ([1]; Homo sapiens, HeLa, read-out: IC50 (μM) Ub^G76V-GFP turn over): 23 ± 3 µM
IC50 ([2]; p97 ATPase assay): 22 ± 4 µM

COc1cccc2c(NCc3ccccc3)nc(-n3c(N)nc4ccccc43)nc12 [VII-16]
IC50 [1, 3]: 0.9 ± 0.1 µM
IC50 [2, 4]: 0.11 ± 0.03 µM

COc1cccc2c(NCc3ccccc3)nc(N(C)c3ccccc3)nc12 [XI-9]
IC50 [1, 5]: 9.2 ± 1.2 µM
IC50 ([2]; p97 ATPase assay): > 30 µM

COc1cccc2c(NCc3ccc(O)cc3)nc(N3CCOc4ccccc43)nc12 [XII-10]
IC50 [1, 3]: 7.3 ± 1 µM
IC50 [2, 4]: 2.4 ± 0.5 µM

COc1cccc2c(NCc3cccs3)nc(N3CCOc4ccccc43)nc12 [XII-5]
IC50 [1, 3]: 3 ± 0.6 µM
IC50 [2, 4]: 1.2 ± 0.2 µM

Brc1ccccc1CNc1nc(NCc2ccccc2)c2ccccc2n1 [IV-9]
IC50 [1, 3]: 3.8 ± 0.7 µM
IC50 [2, 4]: 2 ± 0.3 µM

Clc1ccc2c(NCc3ccccc3)nc(NCc3ccccc3)nc2c1 [VI-12]
IC50 [1, 3]: 6.3 ± 0.9 µM
IC50 [2, 4]: 5.5 ± 0.9 µM

COc1cccc2c(NCc3ccccc3N(C)C)nc(N3CCOc4ccccc43)nc12 [XII-9]
IC50 [1, 5]: 4.5 ± 0.5 µM
IC50 ([2]; p97 ATPase assay): 47 ± 22 µM

COc1ccccc1CNc1nc(Nc2cccc(Cl)c2)nc2ccccc12 [III-10]
IC50 [1, 3]: 11 ± 2 µM
IC50 [2, 4]: 1.6 ± 0.4 µM

COc1ccc(F)cc1Nc1nc(NCc2ccccc2)c2ccccc2n1 [V-11]
IC50 [1, 3]: 9.3 ± 1 µM
IC50 [2, 4]: 6.7 ± 3 µM

COc1cccc2c(NCc3ccccc3)nc(-n3cnc4ccccc43)nc12 [XI-1]
IC50 [1, 3]: 78 ± 45 µM
IC50 [2, 4]: 3.3 ± 1.1 µM

CC(Nc1nc(-c2ccccc2F)nc2ccccc12)c1ccccc1 (stereo not drawn) [Cpd I-31]
IC50 [1, 5]: 15 ± 4 µM
IC50 ([2]; p97 ATPase assay): > 30 µM

COc1ccc2c(NCc3ccccc3)nc(NCc3ccccc3)nc2c1 [VI-13]
IC50 [1, 3]: 42 ± 6 µM
IC50 [2, 4]: 5.7 ± 1 µM

Clc1cccc(CNc2nc(-c3ccccc3)nc3ccccc23)c1 [Cpd I-12]
IC50 [1, 5]: 17 ± 4 µM
IC50 ([2]; p97 ATPase assay): 28 ± 9 µM

COc1ccccc1Nc1nc(NCc2ccccc2)c2ccccc2n1 [II-11]
IC50 [1, 3]: 11 ± 3 µM
IC50 [2, 4]: 2.2 ± 0.9 µM

Brc1ccc(CNc2nc(NCc3ccccc3)c3ccccc3n2)cc1 [IV-4]
IC50 [1, 3]: 3.9 ± 0.3 µM
IC50 [2, 4]: 4.3 ± 0.9 µM

CN(Cc1ccccc1)c1nc(-c2ccccc2[N+](=O)[O-])nc2ccccc12 [Cpd I-27]
IC50 [1, 5]: 11 ± 6 µM
IC50 ([2]; p97 ATPase assay): 25 ± 11 µM

Cc1c(Cl)cccc1Nc1nc(NCc2ccccc2)c2ccccc2n1 [V-5]
IC50 [1, 3]: 5.5 ± 1 µM
IC50 [2, 4]: 0.7 ± 0.1 µM

COc1ccc(CNc2nc(Nc3cccc(Cl)c3)nc3ccccc23)cc1 [III-5]
IC50 [1, 3]: 11 ± 4 µM
IC50 [2, 4]: 2.3 ± 0.6 µM

c1ccc(CNc2nc(N3CCc4ccccc43)nc3ccccc23)cc1 [VII-2]
IC50 [1, 3]: 11 ± 3 µM
IC50 [2, 4]: 2 ± 0.5 µM

c1ccc(CNc2nc(N3CCN(c4ccccc4)CC3)nc3ccccc23)cc1 [XLVII]
IC50 [1, 5]: 35 ± 5 µM
IC50 ([2]; p97 ATPase assay): 34 ± 11 µM

Fc1ccccc1CNc1nc(NCc2ccccc2)c2ccccc2n1 [IV-8]
IC50 [1, 3]: 2.8 ± 0.4 µM
IC50 [2, 4]: 2.9 ± 0.4 µM

O=[N+]([O-])c1ccc(-c2nc(NCc3ccccc3)c3ccccc3n2)cc1 [I-8]
IC50 [1, 3]: 19 ± 7 µM
IC50 [2, 4]: 11 ± 6 µM

Clc1ccccc1CNc1nc(NCc2ccccc2)c2ccccc2n1 [IV-7]
IC50 [1, 3]: 2.9 ± 0.9 µM
IC50 [2, 4]: 5.3 ± 1.2 µM

Cc1cccc(-c2nc(NCc3ccccc3)c3ccccc3n2)c1 [I-5]
IC50 [1, 3]: 17 ± 4 µM
IC50 [2, 4]: 4.2 ± 0.2 µM

Cc1ccccc1CNc1nc(NCc2ccccc2)c2ccccc2n1 [IV-6]
IC50 [1, 3]: 1.9 ± 0.4 µM
IC50 [2, 4]: 2.7 ± 0.5 µM

Fc1ccc2nc(NCc3ccccc3)nc(NCc3ccccc3)c2c1 [VI-15]
IC50 [1, 3]: 8.2 ± 1.5 µM
IC50 [2, 4]: 4.7 ± 0.4 µM

COc1cccc2c(NCc3ccccn3)nc(N3CCOc4ccccc43)nc12 [XII-7]
IC50 [1, 3]: 15 ± 4 µM
IC50 [2, 4]: 19 ± 5 µM

COc1ccc2nc(NCc3ccccc3)nc(NCc3ccccc3)c2c1 [VI-14]
IC50 [1, 3]: 8.6 ± 1.7 µM
IC50 [2, 4]: 7.5 ± 1.1 µM

Fc1ccccc1-c1nc(NCc2ccccc2)c2ccccc2n1 [I-1]
IC50 [1, 3]: 8 ± 1.7 µM
IC50 ([1]; read-out: IC50 (μM) Ub^G76V-GFP turn over, Ub^G76V-GFP-expressing HeLa cells, degradation rate constant k from 90 to 180 min, mean +/- standard error): 9 ± 1.3 µM
IC50 [2, 4]: 1.1 µM and 3 µM

COc1cccc2c(NCc3ccccc3)nc(N3CCN(C(C)=O)CC3)nc12 [XI-19]
IC50 [1, 5]: > 20 µM
IC50 ([2]; p97 ATPase assay): > 30 µM

Brc1cccc2c(NCc3ccccc3)nc(NCc3ccccc3)nc12 [V1-9]
IC50 [1, 3]: 30 ± 2 µM
IC50 [2, 4]: 3.3 ± 0.9 µM

COc1ccc(-c2nc(NCc3ccc(C)cc3)c3ccccc3n2)cc1 [I-21]
IC50 [1, 3]: 12 ± 2 µM
IC50 [2, 4]: 8 ± 2 µM

COc1ccc(Nc2nc(N3CCN(c4ccc([N+](=O)[O-])cc4)CC3)nc3ccccc23)c(OC)c1 [XLIX]
IC50 [1, 5]: 70 ± 16 µM
IC50 ([2]; p97 ATPase assay): 43 ± 13 µM

c1ccc(CNc2ccnc(N3CCOc4ccccc43)n2)cc1 [XX]
IC50 [1, 5]: 27 ± 3 µM
IC50 ([2]; p97 ATPase assay): 2.9 ± 0.2 µM

FC(F)(F)c1cccc(Nc2nc(NCc3ccccc3)c3ccccc3n2)c1 [II-20]
IC50 [1, 5]: 21 ± 1 µM
IC50 ([2]; p97 ATPase assay): 50 ± 16 µM

Clc1cccc(Nc2nc(NCc3cccc(Br)c3)c3ccccc3n2)c1 [III-14]
IC50 [1, 3]: 9.9 ± 2 µM
IC50 [2, 4]: 3.7 ± 0.9 µM

c1ccc(-c2nc(N3CCc4ccccc4C3)c3ccccc3n2)cc1 [Cpd I-35]
IC50 [1, 5]: 19 ± 5 µM
IC50 ([2]; p97 ATPase assay): > 30 µM

Fc1ccccc1-c1nc(NCc2ccccc2Cl)c2ccccc2n1 [Cpd I-16]
IC50 [1, 5]: 15 ± 3 µM
IC50 ([2]; p97 ATPase assay): 26 ± 12 µM

COc1ccc(Nc2nc(NCc3ccccc3)c3ccccc3n2)cc1F [V-8]
IC50 [1, 3]: 4.7 ± 0.8 µM
IC50 [2, 4]: 0.9 ± 0.1 µM

COc1cccc2c(NCc3ccccc3)nc(N3CCc4ccccc4C3)nc12 [XI-8]
IC50 [1, 3]: 7 ± 1.3 µM
IC50 [2, 4]: 15 ± 3 µM

Fc1ccc(CNc2nc(-c3ccccc3)nc3ccccc23)cc1 [I-13]
IC50 [1, 3]: 19 ± 3 µM
IC50 [2, 4]: 11 ± 3 µM

CN(Cc1ccccc1)c1nc(-c2ccc([N+](=O)[O-])cc2)nc2ccccc12 [I-28]
IC50 [1, 3]: 28 ± 4 µM
IC50 [2, 4]: 8.4 ± 4 µM

Fc1cccc(CNc2nc(Nc3cccc(Cl)c3)nc3ccccc23)c1 [III-13]
IC50 [1, 3]: 6.3 ± 1.7 µM
IC50 [2, 4]: 1.2 ± 0.2 µM

Cc1ccc(-c2nc(NCc3ccccc3)c3ccccc3n2)cc1 [I-10]
IC50 [1, 3]: 13 ± 2 µM
IC50 [2, 4]: 5.7 ± 0.7 µM

COc1cccc2c(NCc3cncs3)nc(N3CCOc4ccccc43)nc12 [XII-1]
IC50 [1, 5]: 20 ± 3 µM
IC50 ([2]; p97 ATPase assay): 38 ± 7 µM
